Laboratory results from patent US20250066389A1, “HETEROCYCLIC AMIDES AND METHODS OF USING THE SAME” (Rgenta Therapeutics, Inc., priority 2021, published 2025).
Structures can show the parent of a compound that is named as a salt.

System: PMS1
Assay: Mini-Gene Reporter Assay—PMS1 (firefly luciferase mini-gene reporter transiently transfected into HEK293 cells)
Format: cell-based
Settings: Homo sapiens, mini-gene firefly luciferase reporter in HEK293 cells; for activation at 5 µM: read-out: PMS1 % Effect at 5 uM
Summary of the method: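 HEK293 cells transiently transfected with a mini-gene construct (skipped exon with flanking introns/exons fused to firefly luciferase, pcDNA3.1) are incubated with compounds in duplicate. Exon inclusion raises luminescence; EC50 fitted by Levenberg-Marquardt; effect also scored at 5 μM.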

| IC50 [µM] | Compound | activation at 5 µM [%] |
| --- | --- | --- |
|  | CCOc1cn2nc(C)cc2cc1C(=O)Nc1cnc(N2CC3CCC2C2CNCC32)cn1 (stereo not shown) [Compound 492] | 50 to 75 |
|  | CCOc1cc2nn(C)cc2cc1C(=O)Nc1cnc(N2CCCC3(CCNC3)C2)nc1 (stereo not shown) [Compound 441] | < 50 |
| 1 to 10 | CCOc1cc2nc(C)cn2cc1C(=O)Nc1ccc(N2CCN(C)CC2)nn1 [Compound 729, 7-ethoxy-2-methyl-N-(6-(4-methylpiperazin-1-yl)pyridazin-3-yl)imidazo[1,2-a]pyridine-6-carboxamide] |  |
|  | CCOc1cn2nc(C)cc2cc1C(=O)Nc1ccc(N2CCNCC2)nn1 [Compound 753, 6-ethoxy-2-methyl-N-(6-(piperazin-1-yl)pyridazin-3-yl)pyrazolo[1,5-a]pyridine-5-carboxamide hydrochloride] | > 75 |
| < 1 | CCOc1cc2nc(C)cn2cc1C(=O)Nc1ccc(N2CCNC(C)(C)C2)nn1 [Compound 221, N-(6-(3,3-dimethylpiperazin-1-yl)pyridazin-3-yl)-7-ethoxy-2-methylimidazo[1,2-a]pyridine-6-carboxamide hydrochloride] |  |
|  | CCOc1cc2nn(C)cc2cc1C(=O)Nc1cnc(N2CCC3CCCNC3C2)cn1 (stereo not shown) [Compound 303] | 50 to 75 |
| 1 to 10 | CCOc1nc2nc(C)cn2cc1C(=O)Nc1cnc(N2C[C@@H](C)N[C@@H](C)C2)cn1 [Compound 721, N-(5-((3R,5S)-3,5-dimethylpiperazin-1-yl)pyrazin-2-yl)-7-ethoxy-2-methylimidazo[1,2-a]pyrimidine-6-carboxamide hydrochloride] |  |
|  | COc1cc2nc(C)cn2cc1C(=O)Nc1ccc(N2CCC3(CC2)CNC3)cc1F [Compound 150, N-(2-fluoro-4-(2,7-diazaspiro[3.5]nonan-7-yl)phenyl)-7-methoxy-2-methylimidazo[1,2-a]pyridine-6-carboxamide] | < 50 |
|  | COc1cc2nc(C)cn2cc1C(=O)Nc1ccc(N2CCC3(CC2)COC(C)CN3)cc1F (stereo not shown) [Compound 172, N-(2-fluoro-4-(3-methyl-4-oxa-1,9-diazaspiro[5.5]undecan-9-yl)phenyl)-7-methoxy-2-methylimidazo[1,2-a]pyridine-6-carboxamide] | 50 to 75 |
| 1 to 10 | CCOc1nc2nn(C)cc2cc1C(=O)Nc1ccc(N2CCNCC2)cn1 [Compound 730, 6-ethoxy-2-methyl-N-(5-(piperazin-1-yl)pyridin-2-yl)-2H-pyrazolo[3,4-b]pyridine-5-carboxamide] |  |
|  | CCOc1cc2nn(C)cc2cc1C(=O)Nc1cnc(NC(C)CNC)cn1 (stereo not shown) [Compound 328] | < 50 |
|  | CCNC1CCCN(c2ccc(NC(=O)c3cn4cc(C)nc4cc3OC)c(F)c2)C1 (stereo not shown) [Compound 151, N-(4-(3-(ethylamino)piperidin-1-yl)-2-fluorophenyl)-7-methoxy-2-methylimidazo[1,2-a]pyridine-6-carboxamide] | < 50 |
|  | CCOc1cc2nn(C)cc2cc1C(=O)Nc1cnc(NC[C@@H]2CCNC2)nc1 [Compound 465] | < 50 |
| < 1 | CCOc1cc2nc(C)cn2cc1C(=O)Nc1ccc(N2CCNC(C)C2)nn1 (stereo not shown) [Compound 295] |  |
|  | CCOc1cc2nn(C)cc2cc1C(=O)Nc1cnc(N2CC34CCCCC3(CNC4)C2)cn1 (stereo not shown) [Compound 331] | < 50 |
|  | CCOc1cn2nc(C)cc2cc1C(=O)Nc1cnc(N2CCC(N)CC2)cn1 [Compound 557] | > 75 |
| 1 to 10 | Cc1cn2cc(C(=O)Nc3ccc(N4CCNCC4)cc3F)cc(F)c2n1 [Compound 108, 8-fluoro-N-(2-fluoro-4-(piperazin-1-yl)phenyl)-2-methylimidazo[1,2-a]pyridine-6-carboxamide hydrochloride] |  |
| < 1 | COc1cc2nc(C)cn2cc1C(=O)Nc1ccc(N2CCNCC2)nn1 [Compound 118, 7-methoxy-2-methyl-N-[6-(piperazin-1-yl)pyridazin-3-yl]imidazo[1,2-a]pyridine-6-carboxamide] |  |
| 1 to 10 | CCOc1cn2nc(C)cc2cc1C(=O)Nc1cnc(N2C[C@@H](C)N[C@@H](C)C2)cn1 [Compound 744, N-(5-((3S,5R)-3,5-dimethylpiperazin-1-yl)pyrazin-2-yl)-6-ethoxy-2-methylpyrazolo[1,5-a]pyridine-5-carboxamide hydrochloride] |  |
|  | Cc1cn2cc(C(=O)Nc3ccc(N4CCNCC4)nc3)cc(F)c2n1 [Compound 121, 8-fluoro-2-methyl-N-(6-(piperazin-1-yl)pyridin-3-yl)imidazo[1,2-a]pyridine-6-carboxamide] | < 50 |
| < 1 | CCOc1cc2nc(C)cn2cc1C(=O)Nc1ccc(N2CCN[C@@H](C)C2)nn1 [Compound 217, (S)-7-ethoxy-2-methyl-N-(6-(3-methylpiperazin-1-yl)pyridazin-3-yl)imidazo[1,2-a]pyridine-6-carboxamide HCl Salt] |  |
| < 1 | Cc1cn2cc(C(=O)Nc3ccc(N4CCN[C@@H](C)C4)nn3)c(OCC(F)(F)F)cc2n1 [Compound 216, (S)-2-methyl-N-(6-(3-methylpiperazin-1-yl)pyridazin-3-yl)-7-(2,2,2-trifluoroethoxy)imidazo[1,2-a]pyridine-6-carboxamide] |  |
|  | CCOc1cc2nc(C)cn2cc1C(=O)Nc1cnc(N2CCC(N)C2)cn1 (stereo not shown) [Compound 694] | > 75 |
|  | CCOc1cc2nn(C)cc2cc1C(=O)Nc1cnc(N2CC(N)C(C)(C)C2)nc1 (stereo not shown) [Compound 422] | < 50 |
| 1 to 10 | CCOc1cc2nc(C)cn2cc1C(=O)Nc1ccc(N2CCC(NCC3CC3)CC2)nn1 [Compound 249] |  |
| 1 to 10 | CCOc1cc2nc(C)cn2cc1C(=O)Nc1ccc(N2CCC3(CC2)CNC3)nn1 [Compound 287] |  |

| IC50 [µM] | Compound | activation at 5 µM [%] |
| --- | --- | --- |
| 1 to 10 | CCOc1cc2nc(C)cn2cc1C(=O)Nc1ccc(N2CCNC3CCCCC32)nn1 (stereo not shown) [Compound 243] |  |
|  | CCOc1cn2nc(C)cc2cc1C(=O)Nc1cnc(NC[C@@H]2C[C@H](F)CN2)cn1 [Compound 539] | < 50 |
|  | CCOc1cn2nc(C)cc2cc1C(=O)Nc1cnc(N(C)CC2CCCN2)nc1 (stereo not shown) [Compound 581] | < 50 |
| 10 to 50 | Cc1cn2cc(C(=O)Nc3ccc(N4CCN[C@@H](C)C4)nn3)c(OC3CCOCC3)cc2n1 [Compound 211, (S)-2-methyl-N-(6-(3-methylpiperazin-1-yl)pyridazin-3-yl)-7-((tetrahydro-2H-pyran-4-yl)oxy)imidazo[1,2-a]pyridine-6-carboxamide hydrochloride] |  |
|  | CCOc1cc2nn(C)cc2cc1C(=O)Nc1cnc(N(C)CC2CCNC2)nc1 (stereo not shown) [Compound 449] | < 50 |
|  | CCOc1cc2nn(C)cc2cc1C(=O)Nc1cnc(N2C[C@@H]3C[C@H]2CN3)nc1 [Compound 467] | < 50 |
|  | CCOc1cn2nc(C)cc2cc1C(=O)Nc1cnc(NCC[C@@H]2CCNC2)cn1 [Compound 516] | < 50 |
| 1 to 10 | CCOc1cc2nc(C)cn2cc1C(=O)Nc1ccc(N2CC[C@@H]3NCC[C@@H]3C2)nn1 (racemic) [Compound 261] |  |
| 1 to 10 | CCOc1cc2nc(C)cn2cc1C(=O)Nc1ccc(N2CC[C@@H]3CNC[C@@H]3C2)nn1 (racemic) [Compound 246] |  |
|  | CCOc1cc2nn(C)cc2cc1C(=O)Nc1cnc(N2CCC(N)CC2)nc1 [Compound 481] | < 50 |
|  | CCOc1cc2nn(C)cc2cc1C(=O)Nc1cnc(NCC2CCNCCC2(F)F)nc1 (stereo not shown) [Compound 395] | < 50 |
|  | Cc1cn2cc(C(=O)Nc3ccc(N4CCN[C@H](C)C4)cc3F)ncc2n1 [Compound 105, (R)—N-(2-fluoro-4-(3-methylpiperazin-1-yl)phenyl)-2-methylimidazo[1,2-a]pyrazine-6-carboxamide hydrochloride] | < 50 |
|  | CCOc1cc2nn(C)cc2cc1C(=O)Nc1ccc(C2=CC(C)(C)NCC2)nn1 [Compound 756, N-(6-(6,6-dimethyl-1,2,3,6-tetrahydropyridin-4-yl)pyridazin-3-yl)-6-ethoxy-2-methyl-2H-indazole-5-carboxamide formate] | > 75 |
|  | CCOc1cn2nc(C)cc2cc1C(=O)Nc1cnc(N2CCCC(C)(CN)C2)nc1 (stereo not shown) [Compound 573] | < 50 |
|  | CCOc1cc2nc(C)cn2cc1C(=O)Nc1cnc(NCCC2CNCC(C)O2)cn1 (stereo not shown) [Compound 669] | < 50 |
|  | CCOc1cn2nc(C)cc2cc1C(=O)Nc1cnc(N2CC(NC)C(C)(C)C2)cn1 (stereo not shown) [Compound 503] | > 75 |
|  | CCOc1cn2nc(C)cc2cc1C(=O)Nc1cnc(N(C)CC2CCNC2)nc1 (stereo not shown) [Compound 583] | < 50 |
|  | CCOc1cn2nc(C)cc2cc1C(=O)Nc1cnc(NCCCC2CCCN2)nc1 (stereo not shown) [Compound 563] | < 50 |
|  | CCOc1cc2nn(C)cc2cc1C(=O)Nc1cnc(N(C)CCN2CCNCC2)nc1 [Compound 448] | < 50 |
|  | CCOc1cn2nc(C)cc2cc1C(=O)Nc1cnc(NCCC2CCCCN2)nc1 (stereo not shown) [Compound 588] | < 50 |
|  | CCOc1cc2nn(C)cc2cc1C(=O)Nc1cnc(NC[C@H]2CNCC(C)(C)O2)cn1 [Compound 312] | < 50 |
|  | CCOc1cn2nc(C)cc2cc1C(=O)Nc1cnc(N(C)C[C@@H]2CCCCN2)cn1 [Compound 519] | > 75 |
|  | CCOc1cn2nc(C)cc2cc1C(=O)Nc1ccc(C2=CCNCC2)nn1 [Compound 754, 6-ethoxy-2-methyl-N-(6-(1,2,3,6-tetrahydropyridin-4-yl)pyridazin-3-yl)pyrazolo[1,5-a]pyridine-5-carboxamide hydrochloride] | > 75 |
|  | CCOc1cc2nc(C)cn2cc1C(=O)Nc1cnc(N2CCNC[C@H]2C)cn1 [Compound 692] | > 75 |
| < 1 | CCOc1cc2nn(C)cc2cc1C(=O)Nc1ccc(C2CCN[C@@H](C)C2)nn1 (stereo partly drawn) [Compound 717, 6-ethoxy-2-methyl-N-(6-((2S)-2-methylpiperidin-4-yl)pyridazin-3-yl)-2H-indazole-5-carboxamide] |  |
| 1 to 10 | Cc1cn2cc(C(=O)Nc3ccc(N4CCN[C@@H](C)C4)nn3)c(O[C@@H]3CCOC3)cc2n1 [Compound 212, 2-methyl-N-(6-((S)-3-methylpiperazin-1-yl)pyridazin-3-yl)-7-((tetrahydrofuran-3-yl)oxy)imidazo[1,2-a]pyridine-6-carboxamide] |  |
